Series [1] is described as follows: SafetyScreen 44 and ExpresSDiversity kinase panels (Eurofins Cerep Panlabs). Further details: species or system human. To be noted: 10 µM. The method, then:
TH5427 selectivity was also studied with the SafetyScreen44™ Panel and ExpresSDiversity Kinase Panel from Eurofins Cerep Panlabs at 10 µM, according to the company’s procedures.

Series [2] concerns U-2 OS cells. Briefly: DNA damage signaling by immunofluorescence (γH2A.X, 53BP1, RPA). In kind it is cell-based. To be noted: 10 µM, 72 h. The method, then:
Following siRNA knockdown for 48 h, 10 000 U-2 OS cells were seeded per well in black, clear-bottomed 96-well plates (BD Falcon) and allowed to grow for an additional 48 h. For inhibitor treatment experiments, cells were plated at 2000 per well and 10 µM TH5427 was added the following day for an additional 72 h. Cells were washed with PBS and then fixed with 4% paraformaldehyde in PBS (Santa Cruz) with 0.5% Triton X-100 for 15 min. Primary antibodies were γH2A.X (Millipore, 1:1000 or Cell Signaling, 1:1000), 53BP1 (Bethyl, 1:1000 or Abcam, 1:500) and RPA32 (Cell Signaling, 1:1000) diluted in 3% BSA/PBS and incubated at 4 °C overnight. Alexa Fluor secondary antibodies (ThermoFisher) were used at 1:1000 diluted in 3% BSA/PBS for 1 h at room temperature. DNA was counterstained with DAPI and plates were visualized using an ImageXpress high-throughput microscope (Molecular Devices) with 20x objective. Image analysis was performed with CellProfiler software (Broad Institute).

The target in series [3] is T1, NUDT5 in HL-60 cells (Homo sapiens, UniProt Q9UKK9).
T1 construct: endogenous in cells; host or cells: HL-60
Briefly: drug affinity responsive target stability (DARTS). To be noted: 0.74 and 2.2 µM, 4 h, HL-60 cells in culture. In kind it is cell-based. The method, then: Target engagement was also determined by drug affinity responsive target stability (DARTS)[33]. HL-60 cells were treated in culture with DMSO (0.1% v/v) or TH5427 at 0.7 or 2.2 µM for 4 h. Following two PBS washes, the cells were lysed with M-PER extraction buffer (ThermoFisher) supplemented with protease inhibitor cocktail (Roche). The lysates were divided into 20 µg aliquots and followed by digestion with pronase at the indicated protein to pronase ratios for 30 min at room temperature. Samples were prepared for western blotting and NUDT5 stabilization was compared with SOD1 as a loading control.

The target of series [4] is MTH1 (Homo sapiens, UniProt P36639). Briefly: phosphohydrolase selectivity, malachite green assay. In kind it is biochemical. Further details: His-tag (N); made in house; host or cells: E. coli BL21 (DE3) R3 pRARE2. The method, then: The selectivity assay for TH5427 against similar pyrophosphohydrolases was performed with MTH1, NUDT9, NUDT2, NUDT12, NUDT14, NUDT15, NUDT18, ITPase, dCTPase and dUTPase[9]. All analyses were performed by malachite green assay following 30 min incubation at room temperature in reaction buffer (100 mM Tris Acetate, pH 7.5, 40 mM NaCl, 10 mM MgAc, 1 mM DTT) with 100 µM TH5427 and preferred substrates for each enzyme (4.75 nM MTH1 with 100 µM dGTP, 8 nM NUDT15 with 100 µM dGTP, 8 nM NUDT2 with 16 µM AP4A, 2 nM NUDT5 with 50 µM ADPR, 20 nM NUDT9 with 50 µM ADPR, 20 nM NUDT12 with 50 µM NADH, 2 nM NUDT14 with 50 µM ADPR, 200 nM NUDT18 with 50 µM 8-oxo-dGTP, 0.2 nM ITPase with […], 35 nM dCTPase with 35 µM dCTP, and 1 nM dUTPase with 12.5 µM dUTP). MTH1, NUDT15, NUDT18, ITPase, dCTPase and dUTPase reactions were coupled with 0.2 U/mL pyrophosphatase, while NUDT2, NUDT5, NUDT9, NUDT12, and NUDT14 reactions were coupled by bovine intestinal phosphatase (10 U/mL).

Series [5] deals with U-2 OS cells. The series can be described thus: modified alkaline comet assay (OGG1-specific lesions). In kind it is cell-based. As to conditions: 10 µM, 24 or 72 h. The method, then:
The modified comet assay was used to determine relative amounts of OGG1-specific substrates (e.g., 8-oxo-dG) within cellular DNA[9]. U-2 OS cells were transfected with siRNA for 72 h and/or treated with DMSO/500 nM TH1579 for 24 h prior to harvesting by trypsinization. For experiments with TH5427, cells were treated for 24 or 72 h with 10 µM compound.
In brief, 120 µL of 1% agarose in PBS was added to one end of a fully-frosted microscope slide (ThermoFisher Scientific) and protected with a 24 × 40 mm coverslip to form the first layer. Once solidified at 4 °C, the second layer was made by mixing 400 µL of 1.2% low-melting agarose in PBS with 100 µL of a 1 × 10^6 cells/mL suspension in PBS kept at 37 °C. The coverslip was removed and 80 µL was added on top of the first layer, spread with a coverslip, and left to solidify at 4 °C for 5–10 minutes. Two slides were made for each condition. […]
The slides were visualized using a 10x objective and a Zeiss LSM 780 confocal or Zeiss Axiovert 35 microscope. Comets were analyzed with OpenComet (www.cometbio.org/) or Comet Assay IV (http://www.perceptive.co.uk/products/comet-assay-iv/) software and the tail moments (tail length x percent DNA in the tail) were automatically calculated. […] At least 100 cells were analyzed for each condition per replicate.

Each structure is given as a SMILES string. Where “and” joins values, the source holds several entries; their conditions need not be identical. Equal entries are not always repeated.

Experimental findings from publication PMC5772648, “Targeted NUDT5 inhibitors block hormone signaling in breast cancer cells” (Nature Communications, 2018) are described below.

With `Cn1c(=O)c2c(nc(N3CCNCC3)n2Cc2nnc(-c3ccc(Cl)c(Cl)c3)o2)n(C)c1=O` [TH5427], in series [1], the “off-target interactions in panels” value was “only displayed a few significant interactions”. The “DNA damage signaling” value in series [2] is reported as “neither induced significant DNA damage signaling”. Besides, the “NUDT5 stabilization against protease degradation” value in series [3] is “stabilized NUDT5 against exogenous protease degradation”. In addition, in series [4] (100 µM), the inhibition at 100 µM amounted to 82%. Also, the IC50 in series [4] (dose-response, malachite green assay) is 20.3 µM and 20 µM. In addition, the “selectivity for NUDT5 over MTH1” value in series [4] (in vitro, ratio of IC50 values) was determined as 690 fold. Also, the “OGG1-specific DNA lesions” value in series [5] is listed as “nor increased OGG1-specific DNA lesions”.
